Results reported in US8569229B2, “Compositions and methods which modulate G-protein signaling for the treatment of inflammatory disorders such as asthma and allergic conjunctivitis” (The Children's Hospital of Philadelphia, priority 2008, dated 2013).
“Also recorded” adds a separate entry of the source.

How the values were obtained:
rabbit ASM tissues [1] = assay: Relaxation responsiveness to isoproterenol in isolated rabbit ASM tissues half-maximally contracted with ACh; conditions: for maximal relaxation (Rmax) response to isoproterenol: mean±SE, tissues exposed 24 hr to the agent (PGE2 100 nM; salmeterol 10 μM); for relaxation responsiveness to isoproterenol relative to vehicle-treated controls: tissues exposed 24 hr to the agent; for effect of pretreatment on PGE2-induced impaired relaxation to isoproterenol: PGE2 100 nM x 24 hr; for effect of pretreatment on salmeterol-induced impaired relaxation to isoproterenol: salmeterol 10 μM x 24 hr
Description: (§1) Detection of PDE4D5 mRNA transcripts: Total RNA was extracted from the cultured ASM cells using the TRIzol method (Invitrogen), and cDNAs were isolated by RT-PCR using the SuperScript First Strand Synthesis System kit from Invitrogen, with the following oligonucleotide primer sets (Integrated DNA Technologies): for PDE4D5, 5′-[…]-3′ (forward; SEQ ID NO: 2) and 5′-[…]-3′ (reverse; SEQ ID NO: 3); and for β-actin, 5′-[…]-3′ (forward; SEQ ID NO: 4) and 5′-[…]-3′ (reverse; SEQ ID NO: 5). The reaction volume was 20 μl and cycling conditions used were 35 cycles of 30 sec denaturation at 95° C., followed by 30 sec annealing at 60° C. and elongation at 72° C. for 30 sec. Ex-Tag (Takara Biotechnology) was used as DNA polymerase. […] Following protein extraction and the addition of gel-loading buffer, the extracts were loaded on a 10% SDS-PAGE gel for immunoblotting after transfer to a PVDF membrane. The membranes were then incubated overnight with monoclonal mouse anti-human primary antibodies directed against phospho-CREB and -ATF1, phospho-ERK1/2, or α-actin, and levels were detected by ECL after a 1-hr incubation with a 1:2,000 dilution of HRP-conjugated rabbit anti-mouse secondary antibody, followed by exposure to autoradiography film. The protein band intensities were quantified by densitometry. siRNA-mediated knockdown of PKA: ASM cells were seeded into 6-well plates and, at ˜40% confluency, the medium was replaced with the reduced serum-containing medium, Opti-MEM (Invitrogen). The cells were then transfected twice during a 24-hr interval with two pools of three siRNA duplexes, each pool targeted against the human PKAα or PKAγ catalytic subunits (Santa Cruz Biotechnology; sc-36240 and sc-36236, respectively), or with a non-targeted control (scrambled) siRNA duplex, using Oligofectamine (Invitrogen) as the transfection agent. The pools of siRNAs were applied to each well at a final concentration of 100 nM for each siRNA preparation. […] Transfection of ASM cells with adeno-βARK-ct: Adenovirus (adeno)-βARK-ct, an adenovirus vector encoding the βARK1 carboxyl-terminal domain which blocks Gβγ signaling (25,26), and adeno-β-gal, an adenovirus vector expressing lacZ as a negative control, were constructed using the AdenoX adenovirus construction kit (BD-Clontech). Recombinant plaques were isolated and propagated in HEK293 cells (Invitrogen), with viral purification using the cesium chloride gradient method, and viral titer detected by plaque assay. The ASM cells were transfected with either of the adenoviral vectors at a multiplicity of infection (MOI) of 100, and experiments were conducted at 24 hr following adenoviral tranfections. Pharmacodynamic studies of constrictor and relaxation responsiveness in rabbit ASM tissues: Following initial sedation and subsequent general anesthesia with intramuscular injections of xylazine (10 mg/kg) and ketamine (50 mg/kg), respectively, rabbits were sacrificed with an intravenously administered overdose of sodium pentobarbital (100 mg/kg). As described previously (16), the tracheae were excised via open thoracotomy, the loose connective tissue and epithelium were scraped and removed, and the tracheae were divided into 8 ring segments, each of 6-8 mm in length. […] After these incubations, the tissues were placed in organ baths containing modified Krebs-Ringer solution aerated with 5% CO2 in oxygen (pH of 7.35-7.40), and attached to force transducers to continuously monitor isometric tension. […] The constrictor and relaxation dose-response curves were analyzed with respect to each tissue's maximal isometric contractile force (Tmax) to ACh and maximal relaxation response (Rmax) to isoproterenol from the initial level of active cholinergic contraction. Statistical analyses: Results are expressed as mean±SE values. Comparisons between groups were made using the Student's t-test (two-tailed) or ANOVA with Tukey's post-test analysis, where appropriate.

human ASM cells [2] = assay: Assay of cAMP PDE activity in ASM cell lysates; format: cell-based; conditions: for cAMP PDE (PDE4) activity relative to vehicle-treated control cells: cells exposed 24 hr to the agent; for PDE activity, fold above control: cells incubated 24 hr with the agent (PGE2 or forskolin 100 μM; salmeterol or isoproterenol 10 μM)
Method: Assay of cAMP PDE activity: Levels of cAMP PDE activity were assayed in ASM cell lysates using a colorimetric, non-radioactive enzymatic assay kit from Biomol, as per the manufacture's protocol. PDE activity was determined following exposure of ASM cells for 24 hr to either vehicle alone (control), PGE2 (100 μM), or forskolin (100 μM) in the absence and presence of pretreatment with rolipram (10 μM), cycloheximide (100 μM), actinomycin D (4 μM), or H89 (10 μM).
In each case, the measured levels of PDE activity were standardized to the protein content in the cell extracts.

PDE4D5 mRNA = assay: Detection of PDE4D5 mRNA transcripts by RT-PCR in ASM cells; format: cell-based, human; conditions: for time of peak PDE4D5 mRNA induction / peak PDE4D5 mRNA expression, fold above unstimulated cells: salmeterol or isoproterenol 10 μM; for peak PDE4D5 mRNA expression, fold above unstimulated cells: densitometric analysis, 3 experiments
Description: as §1

human ASM cells [3] = assay: Assay of cAMP accumulation in cultured human ASM cells; format: cell-based; conditions: for isoproterenol-induced cAMP accumulation after 24 hr exposure to the agent: PGE2 100 nM or salmeterol 10 μM x 24 hr, no rolipram
Description: Animals: Adult New Zealand White rabbits were used in this study, which was approved by the Biosafety and Animal Research Committee of the Joseph Stokes Research Institute at Children's Hospital of Philadelphia. The animals had no signs of respiratory disease for several weeks before the study, and their care and use were in accordance with the “Guide for the Care and Use of Laboratory Animals” prepared by the Institute of Laboratory Animal Resources, National Research Council. Culture and treatment of ASM cells: The human ASM cells were grown in SmBm media supplemented with 10% FBS (BioWhittaker) and maintained throughout in a humidified incubator containing 5% CO2 in air at 37° C. The experimental protocols involved growing the cells to ˜95% confluence in the above medium. […] Assay of cAMP accumulation: In initial studies, intracellular cAMP levels were determined in near confluent ASM cell cultures at varying times following treatment of ASM cells with varying concentrations of isoproterenol (0.1 to 100 μM). […]
Thereafter, in the continued presence of these treatments, cells were exposed for 5 min to isoproterenol (10 μM) at 37° C., and intracellular cAMP concentrations were determined per manufacturer's protocols using a direct cAMP Enzyme Immunoassay Kit (R&D Systems, Minneapolis, Minn.). In both cases, the cAMP measurements were expressed in units of picomoles/milligram protein.

ERK1/2 = assay: Immunoblot analysis of ERK1/2 phosphorylation in ASM cells; format: cell-based, human; conditions: for time of peak ERK1/2 phosphorylation / ERK1/2 phosphorylation in cells treated with the agent: isoproterenol or salmeterol 10 μM; for ERK1/2 phosphorylation in cells treated with the agent: PGE2 or forskolin 100 nM
Description: as §1

rabbit ASM tissues [4] = assay: Constrictor responsiveness to acetylcholine (ACh) in isolated rabbit ASM tissues, isometric tension in organ bath; conditions: for constrictor responsiveness to ACh relative to vehicle-treated controls: tissues exposed 24 hr to the agent; for effect of pretreatment on PGE2-induced increase in constrictor responsiveness to ACh: PGE2 100 nM x 24 hr; for effect of pretreatment on salmeterol-induced increase in constrictor responsiveness to ACh: salmeterol 10 μM x 24 hr; for effect of the agent alone on constrictor responses to ACh: vehicle-exposed control tissues
Description: as §1

CREB/ATF1 = assay: Immunoblot analysis of CREB/ATF1 phosphorylation in ASM cells; format: cell-based, human; conditions: PGE2 100 nM
Description: as §1

human ASM cells [5] = assay: Assay of cAMP PDE activity in ASM cell lysates; format: cell-based; conditions: for effect of pretreatment on PGE2- and forskolin-induced increases in PDE activity: PGE2 or forskolin x 24 hr (100 μM in text, 100 nM in legends); for effect of pretreatment on salmeterol- and isoproterenol-induced increase in PDE activity: salmeterol or isoproterenol 10 μM x 24 hr
[6] = forskolin 100 μM x 24 hr, data not shown

SMILES | maximal relaxation (Rmax) response to isoproterenol (rabbit ASM tissues [1]) | relaxation responsiveness to isoproterenol relative to vehicle-treated controls (rabbit ASM tissues [1]) | cAMP PDE (PDE4) activity relative to vehicle-treated control cells (human ASM cells [2]) | PDE activity, fold above control (human ASM cells [2]) | time of peak PDE4D5 mRNA induction (PDE4D5 mRNA; PGE2 100 nM) | peak PDE4D5 mRNA expression, fold above unstimulated cells (PDE4D5 mRNA; PGE2 100 nM) | isoproterenol-induced cAMP accumulation after 24 hr exposure to the agent (human ASM cells [3]; isoproterenol 1.0 μM, 5 min) | time of peak ERK1/2 phosphorylation (ERK1/2; PGE2 100 nM) | ERK1/2 phosphorylation in cells treated with the agent (ERK1/2) | constrictor responsiveness to ACh relative to vehicle-treated controls (rabbit ASM tissues [4]) | phosphorylation of CREB and ATF1 in cells treated with the agent (CREB/ATF1; isoproterenol 10 μM) | effect of pretreatment on PGE2-induced impaired relaxation to isoproterenol (rabbit ASM tissues [1]) | effect of pretreatment on salmeterol-induced impaired relaxation to isoproterenol (rabbit ASM tissues [1]) | effect of pretreatment on PGE2- and forskolin-induced increases in PDE activity (human ASM cells [5]) | effect of pretreatment on salmeterol- and isoproterenol-induced increase in PDE activity (human ASM cells [5]) | effect of pretreatment on PGE2-induced increase in constrictor responsiveness to ACh (rabbit ASM tissues [4]) | effect of pretreatment on salmeterol-induced increase in constrictor responsiveness to ACh (rabbit ASM tissues [4]) | effect of the agent alone on constrictor responses to ACh (rabbit ASM tissues [4]) | other results
OCc1cc(C(O)CNCCCCCCOCCCCc2ccccc2)ccc1O (stereo not shown) [salmeterol] | 33.39±5.1% | impaired relaxation responses | significantly increased | ~2 fold | 6 h | 7.3 fold | significantly reduced cAMP responses; also recorded: markedly attenuated | 20 min | increased phosphorylation of ERK1/2; also recorded: enhanced ERK1/2 phosphorylation | significantly increased constrictor responses | Qualitatively similar temporal changes |  |  |  |  |  |  |  | 
CCCCC[C@H](O)/C=C/[C@H]1[C@H](O)CC(=O)[C@@H]1C/C=C\CCCC(=O)O [PGE2, prostaglandin (PG)E2] | 31.4±5.4% | impaired relaxation responses; also recorded: impaired ASM relaxation | significantly increased; also recorded: significant increase | 3.74 fold | 6 h | 5.9 fold | significantly reduced cAMP responses; also recorded: significantly attenuated | 30 min | increased expression of phosphorylated ERK1/2; also recorded: significantly increased | significantly increased constrictor responses; also recorded: increased constrictor responsiveness | transiently increased phosphorylation; also recorded: transiently upregulated expression |  |  |  |  |  |  |  | increase in ERK1/2 phosphorylation, fold above control (vehicle-treated) cells (ERK1/2; densitometric ratios, mean±SE, PGE2 30 min, isoproterenol 20 min): 3.76±0.64 fold; time of peak CREB/ATF1 phosphorylation (CREB/ATF1; isoproterenol 10 μM): 30 min
COc1ccc(C2CNC(=O)C2)cc1OC1CCCC1 (stereo not shown) [rolipram] |  |  |  |  |  |  |  |  |  |  |  | completely ablated; also recorded: prevents | completely ablated; also recorded: prevents | completely abrogated; also recorded: ablated | completely abrogated; also recorded: ablated | completely abrogated; also recorded: prevents | completely abrogated; also recorded: prevents | only modestly decreased constrictor responses; also recorded: did not exhibit any significant changes; also recorded: no significant effect | effect of pretreatment on forskolin-induced impaired relaxation to isoproterenol (rabbit ASM tissues [1]; [6]): completely abrogated; isoproterenol-induced cAMP response in PGE2-exposed cells pretreated with the agent (human ASM cells [3]; PGE2 100 nM x 24 hr, rolipram 10 μM): preserved; also recorded: unaltered; isoproterenol-induced cAMP accumulation in cells pretreated with the agent (human ASM cells [3]; rolipram 10 μM, isoproterenol 1.0 μM, 5 min): increased isoproterenol-induced cAMP accumulation; also recorded: slightly increased; isoproterenol-induced cAMP response in salmeterol-exposed cells co-treated with the agent (human ASM cells [3]; salmeterol 10 μM x 24 hr, rolipram 10 μM): largely preserved; also recorded: unaltered; effect of pretreatment on forskolin-induced increase in constrictor responsiveness to ACh (rabbit ASM tissues [4]; [6]): completely abrogated
O=S(=O)(NCCNC/C=C/c1ccc(Br)cc1)c1cccc2cnccc12 [H89] |  |  |  |  |  |  |  |  |  |  |  | abrogated | completely ablated; also recorded: prevents | abrogated; also recorded: ablated | prevented; also recorded: ablated | abrogated | completely abrogated; also recorded: prevents | no significant effect; also recorded: did not exhibit any significant changes | effect of the agent alone on relaxation responses to isoproterenol (rabbit ASM tissues [1]; vehicle-exposed control tissues): no significant effect; also recorded: did not exhibit any significant changes; effect of the agent alone on basal PDE activity (human ASM cells [2]; no cAMP-elevating agent): no significant change; also recorded: neither H89 nor U0126 alone had a significant effect; effect of pretreatment on PGE2-induced upregulated PDE4D5 mRNA expression (PDE4D5 mRNA; PGE2 100 nM, 6 hr): largely prevented; also recorded: ablated; effect of pretreatment on β2AR agonist (isoproterenol)-induced upregulated PDE4D5 mRNA expression (PDE4D5 mRNA; isoproterenol 10 μM, 6 hr): largely prevented; also recorded: ablated; effect on PGE2-induced phosphorylation of ERK1/2 (ERK1/2; PGE2 100 nM, 30 min): abrogated; also recorded: ablated; effect on PGE2-induced phosphorylation of CREB/ATF1 (CREB/ATF1; 30 min): abrogated; also recorded: ablated
